# Source: US11396512B2, “CDK2/4/6 inhibitors” (Pfizer Inc., priority 2016, dated 2022)
# Tests used:
# CDK6/Cyclin D1 = CDK6/Cyclin D1 (Homo sapiens (Human), UniProt Q00534); experiment: biochemical
# [1] = test system: HCC1806 mouse tumor xenograft; experiment: HCC1806 tumor model (mouse xenograft); type: in vivo; conditions: NU/NU female mice, 30 mpk PO BID, 50 mpk PO BID and 75 mpk PO BID, 14 days
# Description: Source: HCC1806 (#CRL 2335, ATCC, Manassas, Va.)
# The HCC1806 tumor cell line was cultured in RPM11640 media supplemented with 10% Fetal Bovine Serum (FBS). To establish a HCC1806 xenograft model, 5×10^6 cells per mouse were implanted subcutaneously into right hind flank NU/NU female mice. Cells were suspended in 50% Cultrex Basement Membrane Extract and 50% RPMI 1640 media serum free media prior to implantation.
# Animals were randomized 7 days after cells implantation with each group consisting of 13 mice. Treatment began when tumors reached 100 mm^3 to 170 mm^3 in size on Day 7. Test compounds were prepared in 0.1% Tween, 0.5% Methyl cellulose in water and dosed PO at 30, 50, and 75 mg/kg as a suspension BID for 14 days. Mice receiving no drugs were given vehicle BID for 14 days. Tumor volumes were measured twice a week with an electric caliper, with tumor volumes calculated using Length×Width×Width/2 formula. Animal weights were recorded twice weekly.
# Sequence of CDK6/Cyclin D1 (Q00534 whole entry): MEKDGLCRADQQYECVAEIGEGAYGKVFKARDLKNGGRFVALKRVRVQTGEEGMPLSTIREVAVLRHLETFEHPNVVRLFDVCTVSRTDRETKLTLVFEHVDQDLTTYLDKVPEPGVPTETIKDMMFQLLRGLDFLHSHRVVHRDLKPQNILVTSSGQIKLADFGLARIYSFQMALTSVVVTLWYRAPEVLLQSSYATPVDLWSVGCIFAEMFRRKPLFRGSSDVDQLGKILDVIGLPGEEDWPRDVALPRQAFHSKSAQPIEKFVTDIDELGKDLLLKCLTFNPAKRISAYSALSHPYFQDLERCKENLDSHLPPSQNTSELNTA
# Sequence of CDK6/Cyclin D1 (P24385 whole entry partner): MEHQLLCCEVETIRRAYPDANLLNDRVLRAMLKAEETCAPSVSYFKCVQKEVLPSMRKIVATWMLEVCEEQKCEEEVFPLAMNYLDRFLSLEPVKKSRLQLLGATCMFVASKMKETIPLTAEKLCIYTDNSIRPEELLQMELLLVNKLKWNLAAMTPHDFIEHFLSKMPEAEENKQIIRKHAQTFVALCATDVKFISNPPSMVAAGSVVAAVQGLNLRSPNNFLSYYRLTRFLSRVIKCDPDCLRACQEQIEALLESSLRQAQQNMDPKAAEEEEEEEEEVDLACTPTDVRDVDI
structure (smiles),measurement,setting,value
"C[C@]1(O)CCCC1n1c(=O)ccc2cnc(NC3CCN(S(=O)(=O)C(F)(F)F)CC3)nc21 (single isomer, unassigned) [Example 89]",Ki,CDK6/Cyclin D1,11.3 nM
"C[C@@]1(O)CCC[C@H]1n1c(=O)ccc2cnc(NC3CCN(S(C)(=O)=O)CC3)nc21 [Example 2, 8-[(1R,2R)-2-hydroxy-2-methylcyclopentyl]-2-{[1-(methylsulfonyl)piperidin-4-yl]amino}pyrido[2,3-d]pyrimidin-7(8H)-one]",inhibition of tumor growth (mm^3),[1],dose dependent inhibition of tumor growth
